Calls of active or inactive are those of the source.
Tests used:
[1] = Luminescence Cell-Based Dose Confirmation HTS to Identify Activators of 5'UTR Stem-Loop Driven Alpha-Synuclein mRNA Translation in H4 Neuroglioblastoma Cells. [Related pubchem assays: 1829 (Project Summary), 1814 (Primary HTS)]; format: functional
[2] = Luminescence Cell-Based Dose Response HTS to Identify Activators of Luciferase Translation or Activity in H4 […] Cells. [Related pubchem assays: 1829 (Project Summary), 1814 (Primary HTS)]; format: functional
[3] = test system: Streptococcus sp. 'group A'; experiment: growth inhibition of control SK(-) GAS strain, dose response, counter-screen for streptokinase expression inhibitor project, luminescence, kanamycin, BacTiterGlo, confirmation (AID 1900); format: functional, organism-based
H4 = experiment: Luminescence Cell-Based Dose Response HTS to Identify Activators of 5'UTR Stem-Loop Driven Prion Protein mRNA Translation in H4 Neuroglioblastoma Cells. [Related pubchem assays: 1829 (Project Summary), 1814 (Primary HTS)]; format: functional; conditions: Homo sapiens
Streptococcus = experiment: Group A Streptococcus viability loss, dose response, counter-screen for streptokinase expression inhibitor project, luminescence, BacTiterGlo (AID 1915); format: functional, organism-based;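 note: potency for reduction of bacterial viability or growth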
[4] = molecular target: T1, Endoribonuclease toxin MazF (Escherichia coli K-12, UniProt P0AE70); experiment: MazF toxin RNase activators, dose response, biochemical, fluorescence, single-stranded RNA substrate, uHTS hits (AID 588481); format: functional
T1 sequence (P0AE70 whole entry): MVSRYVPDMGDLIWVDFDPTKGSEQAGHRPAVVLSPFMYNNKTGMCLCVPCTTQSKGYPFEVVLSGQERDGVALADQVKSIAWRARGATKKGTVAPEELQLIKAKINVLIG

[5] = molecular target: T1, Endoribonuclease toxin MazF; experiment: fluorescent RNA oligo signal without MazF, dose response, counter-screen for MazEF activator project, biochemical, fluorescence, single-stranded RNase substrate (AID 588502); format: functional
cells [6] = format: functional, cell-based
[7] = molecular target: T2, Nuclear receptor subfamily 0 group B member 1 (Homo sapiens, UniProt P51843); format: functional, cell-based;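 note: HEK293T cells transfected with SF-1 and DAX-1 plus StAR promoter luciferase reporter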
T2 sequence (P51843 whole entry): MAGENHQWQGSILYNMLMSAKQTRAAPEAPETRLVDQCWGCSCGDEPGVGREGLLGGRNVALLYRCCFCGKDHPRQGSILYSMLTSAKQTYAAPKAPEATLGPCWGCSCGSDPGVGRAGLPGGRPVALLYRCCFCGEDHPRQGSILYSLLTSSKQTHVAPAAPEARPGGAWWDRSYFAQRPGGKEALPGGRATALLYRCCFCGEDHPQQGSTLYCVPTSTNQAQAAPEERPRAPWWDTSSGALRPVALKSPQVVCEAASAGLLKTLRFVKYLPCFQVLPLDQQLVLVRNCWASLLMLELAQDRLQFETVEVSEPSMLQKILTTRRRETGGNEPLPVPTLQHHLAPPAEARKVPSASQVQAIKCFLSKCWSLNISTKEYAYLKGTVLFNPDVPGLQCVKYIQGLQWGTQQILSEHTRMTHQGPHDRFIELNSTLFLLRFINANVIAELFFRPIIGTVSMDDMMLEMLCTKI

[8] = molecular target: T3, Small ubiquitin-related modifier 1 (Homo sapiens, UniProt P63165); experiment: inhibitors of SUMO1 peptide binding, dose response, biochemical, fluorescence polarization, uHTS hits (AID 624382); format: functional; conditions: read-out: IC50_Mean
T3 sequence (P63165 whole entry): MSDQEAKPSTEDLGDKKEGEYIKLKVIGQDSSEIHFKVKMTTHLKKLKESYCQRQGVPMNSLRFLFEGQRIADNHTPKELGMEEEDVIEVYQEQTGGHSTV

[9] = molecular target: T3, Small ubiquitin-related modifier 1; experiment: inhibitors of SUMO1 partner interactions, dose response, biochemical, FRET (AID 624383); format: functional; conditions: read-out: IC50_Mean
[10] = molecular target: T4, Sentrin-specific protease 8 (Homo sapiens, UniProt Q96LD8); format: functional
T4 sequence (Q96LD8 whole entry): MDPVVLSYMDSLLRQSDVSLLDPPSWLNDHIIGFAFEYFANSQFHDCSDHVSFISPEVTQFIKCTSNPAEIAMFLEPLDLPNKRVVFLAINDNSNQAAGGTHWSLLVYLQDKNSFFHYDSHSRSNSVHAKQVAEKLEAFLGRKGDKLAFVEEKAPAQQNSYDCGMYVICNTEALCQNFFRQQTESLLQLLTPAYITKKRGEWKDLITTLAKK

[11] = molecular target: T4, Sentrin-specific protease 8; format: functional; remark: listed apart in the source
NS3 = NS3 (Hepatitis C virus, UniProt A3EZJ3); experiment: PubChem AID 2173; design: species or system Hepacivirus hominis
Sequence of NS3 (A3EZJ3 whole entry): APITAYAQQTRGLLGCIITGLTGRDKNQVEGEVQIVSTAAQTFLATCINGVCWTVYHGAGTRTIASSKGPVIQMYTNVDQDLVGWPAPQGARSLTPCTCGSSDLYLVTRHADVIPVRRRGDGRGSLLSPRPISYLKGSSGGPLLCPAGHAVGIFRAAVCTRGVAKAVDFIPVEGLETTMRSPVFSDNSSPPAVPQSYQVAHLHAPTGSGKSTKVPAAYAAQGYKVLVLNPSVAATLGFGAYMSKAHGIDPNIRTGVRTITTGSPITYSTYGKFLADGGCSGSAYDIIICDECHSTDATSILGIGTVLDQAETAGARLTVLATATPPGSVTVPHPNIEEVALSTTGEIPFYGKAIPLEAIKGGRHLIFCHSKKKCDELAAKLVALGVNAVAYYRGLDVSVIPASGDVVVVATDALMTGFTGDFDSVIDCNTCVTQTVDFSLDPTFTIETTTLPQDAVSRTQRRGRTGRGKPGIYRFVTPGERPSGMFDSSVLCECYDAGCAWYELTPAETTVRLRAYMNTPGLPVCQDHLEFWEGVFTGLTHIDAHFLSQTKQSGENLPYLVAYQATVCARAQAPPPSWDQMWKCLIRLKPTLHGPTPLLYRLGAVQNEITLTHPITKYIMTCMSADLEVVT

[12] = molecular target: Induced myeloid leukemia cell differentiation protein Mcl-1 (Homo sapiens, UniProt Q07820); format: functional
Sequence of Induced myeloid leukemia cell differentiation protein Mcl-1 (Q07820 whole entry): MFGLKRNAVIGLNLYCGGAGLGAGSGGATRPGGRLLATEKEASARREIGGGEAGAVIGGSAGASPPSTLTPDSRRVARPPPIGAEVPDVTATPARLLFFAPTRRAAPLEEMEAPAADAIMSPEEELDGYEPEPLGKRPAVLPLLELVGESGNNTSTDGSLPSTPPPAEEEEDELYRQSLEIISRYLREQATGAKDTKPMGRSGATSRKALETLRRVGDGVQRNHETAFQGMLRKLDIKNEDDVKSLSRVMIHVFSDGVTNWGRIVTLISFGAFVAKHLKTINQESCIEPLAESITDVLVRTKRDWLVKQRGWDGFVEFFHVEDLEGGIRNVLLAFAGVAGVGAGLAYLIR

[13] = molecular target: Glucose-6-phosphate 1-dehydrogenase (Homo sapiens, UniProt P11413); experiment: human G6PD enzyme inhibitors, dose response, selectivity assay for P. falciparum G6PD inhibitor project, biochemical, fluorescence (AID 504792); format: functional
Sequence of Glucose-6-phosphate 1-dehydrogenase (P11413 whole entry): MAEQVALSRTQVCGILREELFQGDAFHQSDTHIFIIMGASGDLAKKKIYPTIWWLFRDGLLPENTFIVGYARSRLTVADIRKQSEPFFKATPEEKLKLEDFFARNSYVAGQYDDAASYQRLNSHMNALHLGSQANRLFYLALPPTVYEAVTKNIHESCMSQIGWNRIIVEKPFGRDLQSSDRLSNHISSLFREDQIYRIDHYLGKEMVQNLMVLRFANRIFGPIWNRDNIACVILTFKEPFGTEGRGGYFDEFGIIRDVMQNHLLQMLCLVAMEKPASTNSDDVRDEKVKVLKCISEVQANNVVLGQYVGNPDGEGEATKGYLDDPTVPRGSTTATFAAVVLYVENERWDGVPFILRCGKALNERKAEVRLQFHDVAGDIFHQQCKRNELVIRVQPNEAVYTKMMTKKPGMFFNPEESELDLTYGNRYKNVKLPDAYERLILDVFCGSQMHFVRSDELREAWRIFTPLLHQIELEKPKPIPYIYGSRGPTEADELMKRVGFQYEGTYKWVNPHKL

[14] = molecular target: T5, Heat shock factor protein 1 (Mus musculus, UniProt P38532); experiment: HSF1 potentiators in luciferase reporter cells, confirmation, cell-based, NIH3T3, luminescence, dose retest (AID 435004); format: functional;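 note: stress induced by proteasome inhibitor MG132 added 30 min after compound; luciferase reporter driven by HSF1 response element in NIH3T3 cells; actives raise luminescence as potentiators of the MG132 stress response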
T5 sequence (P38532 whole entry): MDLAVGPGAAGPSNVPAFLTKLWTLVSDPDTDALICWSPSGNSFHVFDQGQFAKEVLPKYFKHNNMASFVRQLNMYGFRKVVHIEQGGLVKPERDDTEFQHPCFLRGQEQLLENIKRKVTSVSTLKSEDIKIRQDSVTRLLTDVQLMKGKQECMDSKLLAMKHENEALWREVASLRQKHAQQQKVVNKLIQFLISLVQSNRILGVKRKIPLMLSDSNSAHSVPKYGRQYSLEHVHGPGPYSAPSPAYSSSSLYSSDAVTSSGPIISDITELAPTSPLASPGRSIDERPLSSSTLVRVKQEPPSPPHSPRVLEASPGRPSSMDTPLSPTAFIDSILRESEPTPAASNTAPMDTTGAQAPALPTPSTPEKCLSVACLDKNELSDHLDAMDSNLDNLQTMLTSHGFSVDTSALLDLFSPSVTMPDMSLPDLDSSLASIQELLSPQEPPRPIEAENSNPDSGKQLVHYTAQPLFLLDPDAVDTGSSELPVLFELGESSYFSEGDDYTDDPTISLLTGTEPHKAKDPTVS

Genome polyprotein = Genome polyprotein (dengue virus type 2, UniProt P29990); experiment: Dengue-2 NS5 methyltransferase inhibitors, primary screen, biochemical, confirmation dose response (AID 588689); format: functional
Sequence of Genome polyprotein (P29990 2492-3391 limits assumed): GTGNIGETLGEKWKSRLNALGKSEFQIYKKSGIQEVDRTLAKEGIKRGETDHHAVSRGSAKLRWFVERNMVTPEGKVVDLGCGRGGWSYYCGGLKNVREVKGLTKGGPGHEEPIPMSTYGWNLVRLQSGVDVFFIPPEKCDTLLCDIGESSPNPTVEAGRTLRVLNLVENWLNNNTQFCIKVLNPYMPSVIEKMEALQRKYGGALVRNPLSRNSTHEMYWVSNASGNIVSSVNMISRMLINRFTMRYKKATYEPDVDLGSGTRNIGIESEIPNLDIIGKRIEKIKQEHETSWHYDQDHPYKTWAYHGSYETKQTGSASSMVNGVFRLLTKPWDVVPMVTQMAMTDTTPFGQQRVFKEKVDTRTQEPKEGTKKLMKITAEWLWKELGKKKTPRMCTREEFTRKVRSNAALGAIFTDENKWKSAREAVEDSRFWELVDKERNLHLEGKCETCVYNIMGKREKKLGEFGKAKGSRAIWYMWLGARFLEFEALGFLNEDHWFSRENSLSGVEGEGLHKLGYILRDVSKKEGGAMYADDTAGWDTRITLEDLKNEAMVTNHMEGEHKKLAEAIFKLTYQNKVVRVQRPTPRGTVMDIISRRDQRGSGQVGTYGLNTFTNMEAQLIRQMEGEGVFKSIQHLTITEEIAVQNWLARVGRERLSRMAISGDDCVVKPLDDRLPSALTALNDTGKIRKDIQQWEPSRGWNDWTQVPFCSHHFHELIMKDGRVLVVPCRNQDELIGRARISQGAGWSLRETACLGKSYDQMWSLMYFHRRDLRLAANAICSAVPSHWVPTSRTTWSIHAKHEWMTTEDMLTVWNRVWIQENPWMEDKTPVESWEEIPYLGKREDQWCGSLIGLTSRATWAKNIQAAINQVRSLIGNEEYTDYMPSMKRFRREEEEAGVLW

[15] = molecular target: T6, Carboxy-terminal domain RNA polymerase II polypeptide A small phosphatase 1 (Homo sapiens, UniProt Q9GZU7); experiment: inhibitors of CTDSP1, concentration-response testing, biochemical assay, absorbance-based, actives from ultra-high-throughput screening (AID 540297); format: functional
T6 sequence (Q9GZU7 whole entry): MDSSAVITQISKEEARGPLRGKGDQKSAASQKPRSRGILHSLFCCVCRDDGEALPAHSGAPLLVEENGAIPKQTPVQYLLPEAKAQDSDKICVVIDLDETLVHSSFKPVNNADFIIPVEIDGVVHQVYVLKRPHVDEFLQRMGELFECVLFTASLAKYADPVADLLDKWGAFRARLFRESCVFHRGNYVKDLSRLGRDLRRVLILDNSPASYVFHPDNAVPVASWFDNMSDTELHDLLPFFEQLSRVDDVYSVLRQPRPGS

[16] = molecular target: DNA (cytosine-5)-methyltransferase 1 (Homo sapiens, UniProt P26358); experiment: DNMT1 methyltransferase inhibitors, confirmation, biochemical, fluorescent molecular beacon (AID 602386); format: functional
Sequence of DNA (cytosine-5)-methyltransferase 1 (P26358 whole entry): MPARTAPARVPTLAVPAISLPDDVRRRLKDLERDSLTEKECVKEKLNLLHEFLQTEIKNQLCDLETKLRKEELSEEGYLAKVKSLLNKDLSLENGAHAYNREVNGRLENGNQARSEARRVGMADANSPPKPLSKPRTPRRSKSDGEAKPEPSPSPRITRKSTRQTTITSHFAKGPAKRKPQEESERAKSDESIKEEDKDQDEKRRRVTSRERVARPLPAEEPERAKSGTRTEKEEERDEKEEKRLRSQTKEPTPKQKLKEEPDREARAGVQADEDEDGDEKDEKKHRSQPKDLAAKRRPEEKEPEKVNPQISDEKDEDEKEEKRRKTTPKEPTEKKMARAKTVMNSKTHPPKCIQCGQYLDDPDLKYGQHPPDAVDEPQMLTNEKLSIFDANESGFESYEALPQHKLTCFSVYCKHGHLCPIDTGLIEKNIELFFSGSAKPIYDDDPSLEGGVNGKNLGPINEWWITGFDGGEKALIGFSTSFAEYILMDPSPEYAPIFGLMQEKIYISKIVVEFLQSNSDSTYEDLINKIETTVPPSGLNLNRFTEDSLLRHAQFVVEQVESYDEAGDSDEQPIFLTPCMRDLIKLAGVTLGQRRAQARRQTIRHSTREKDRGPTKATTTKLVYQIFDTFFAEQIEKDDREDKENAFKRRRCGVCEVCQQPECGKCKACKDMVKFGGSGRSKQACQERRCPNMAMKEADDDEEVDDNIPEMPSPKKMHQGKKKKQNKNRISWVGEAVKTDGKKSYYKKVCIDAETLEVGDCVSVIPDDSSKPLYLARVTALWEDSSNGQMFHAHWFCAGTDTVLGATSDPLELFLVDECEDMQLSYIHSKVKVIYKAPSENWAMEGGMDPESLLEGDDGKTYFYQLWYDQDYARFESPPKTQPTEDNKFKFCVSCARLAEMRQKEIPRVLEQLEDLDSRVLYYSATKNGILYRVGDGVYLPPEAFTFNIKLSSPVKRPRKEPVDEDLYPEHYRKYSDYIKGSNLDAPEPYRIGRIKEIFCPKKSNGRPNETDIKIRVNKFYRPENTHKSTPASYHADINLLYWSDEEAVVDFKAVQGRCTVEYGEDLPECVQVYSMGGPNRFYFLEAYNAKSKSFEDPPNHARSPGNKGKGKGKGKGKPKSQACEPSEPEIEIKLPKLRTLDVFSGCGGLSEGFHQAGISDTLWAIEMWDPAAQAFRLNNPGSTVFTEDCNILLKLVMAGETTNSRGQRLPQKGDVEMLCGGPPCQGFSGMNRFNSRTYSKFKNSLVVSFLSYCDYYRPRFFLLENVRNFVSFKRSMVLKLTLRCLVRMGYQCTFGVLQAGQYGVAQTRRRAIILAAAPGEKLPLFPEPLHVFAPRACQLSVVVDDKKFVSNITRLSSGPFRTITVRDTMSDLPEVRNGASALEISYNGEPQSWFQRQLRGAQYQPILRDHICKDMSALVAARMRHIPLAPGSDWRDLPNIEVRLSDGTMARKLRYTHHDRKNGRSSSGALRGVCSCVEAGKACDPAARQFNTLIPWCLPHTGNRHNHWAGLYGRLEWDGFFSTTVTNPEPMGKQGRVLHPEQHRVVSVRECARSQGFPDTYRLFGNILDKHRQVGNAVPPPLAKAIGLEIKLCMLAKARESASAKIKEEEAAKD

[17] = molecular target: T7, Probable nicotinate-nucleotide adenylyltransferase (Staphylococcus aureus (strain N315), UniProt P65502); format: functional, Staphylococcus aureus subsp. aureus N315;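 for IC50 Mean: confirmatory dose-response retesting of NadD inhibitor hits first found in an ultra-high-throughput screen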
T7 sequence (P65502 whole entry): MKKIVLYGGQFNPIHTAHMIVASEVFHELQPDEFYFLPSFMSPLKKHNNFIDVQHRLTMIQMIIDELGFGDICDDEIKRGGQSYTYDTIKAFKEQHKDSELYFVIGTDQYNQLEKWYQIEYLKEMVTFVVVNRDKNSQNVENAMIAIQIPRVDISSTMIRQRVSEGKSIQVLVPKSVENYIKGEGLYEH

[18] = molecular target: T7, Probable nicotinate-nucleotide adenylyltransferase; format: functional, Staphylococcus aureus subsp. aureus N315; conditions: read-out: IC50_Mean
[19] = molecular target: T8, Rac GTPase-activating protein 1 (Homo sapiens, UniProt Q9H0H5); experiment: MgcRacGAP GTPase-activating activity inhibitors, confirmation, biochemical, ADP Hunter fluorescence, primary and confirmatory (AID 624330); format: functional
T8 sequence (Q9H0H5 whole entry): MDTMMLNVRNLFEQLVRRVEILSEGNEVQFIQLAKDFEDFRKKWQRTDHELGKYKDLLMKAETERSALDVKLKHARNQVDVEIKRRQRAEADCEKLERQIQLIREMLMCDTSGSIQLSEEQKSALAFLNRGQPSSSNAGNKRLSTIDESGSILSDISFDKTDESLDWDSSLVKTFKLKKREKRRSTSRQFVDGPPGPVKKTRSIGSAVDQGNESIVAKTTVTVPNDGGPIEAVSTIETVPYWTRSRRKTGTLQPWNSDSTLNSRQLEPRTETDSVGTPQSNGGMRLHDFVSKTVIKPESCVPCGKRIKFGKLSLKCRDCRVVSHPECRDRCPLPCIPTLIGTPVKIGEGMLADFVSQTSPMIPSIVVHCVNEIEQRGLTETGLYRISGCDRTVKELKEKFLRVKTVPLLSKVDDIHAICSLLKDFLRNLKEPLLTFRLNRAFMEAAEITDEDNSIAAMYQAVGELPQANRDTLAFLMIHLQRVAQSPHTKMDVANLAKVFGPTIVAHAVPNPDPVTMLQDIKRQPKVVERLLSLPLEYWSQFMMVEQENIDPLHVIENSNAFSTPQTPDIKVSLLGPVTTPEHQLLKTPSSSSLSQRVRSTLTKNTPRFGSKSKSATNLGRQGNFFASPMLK

cells [20] = format: functional, cell-based; remark: listed apart in the source
[21] = molecular target: T9, Trace amine-associated receptor 1 (Homo sapiens, UniProt Q96RJ0); experiment: Fluorescence-based cell-based high throughput dose response assay to identify agonists of the human trace amine associated receptor 1 (TAAR1).; format: functional
T9 sequence (Q96RJ0 whole entry): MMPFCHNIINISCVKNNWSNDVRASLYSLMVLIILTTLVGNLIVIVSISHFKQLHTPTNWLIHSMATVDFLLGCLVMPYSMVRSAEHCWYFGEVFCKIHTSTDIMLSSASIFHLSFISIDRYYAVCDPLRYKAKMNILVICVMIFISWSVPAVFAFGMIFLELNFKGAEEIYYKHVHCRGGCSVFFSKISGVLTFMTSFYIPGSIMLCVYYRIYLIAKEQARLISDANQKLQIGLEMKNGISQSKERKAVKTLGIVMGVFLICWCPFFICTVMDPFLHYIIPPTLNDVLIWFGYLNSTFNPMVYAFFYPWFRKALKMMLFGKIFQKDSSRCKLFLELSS

[22] = molecular target: T9, Trace amine-associated receptor 1; experiment: Counterscreen for agonists of the human trace amine associated receptor 1 (hTAAR1): Fluorescence-based cell-based high throughput dose response assay to identify hTAAR1 agonist that also desensitize TAAR1 receptor response.; format: functional
cells [23] = format: functional, cell-based; remark: listed apart in the source
Albumin = Albumin (Bos taurus, UniProt P02769); experiment: Counterscreen for inhibitors of T-cell receptor (TCR)-CD3 interaction: Fluorescence-based biochemical high throughput dose response assay to identify inhibitors of T-cell receptor (TCR)-CD3 interaction using a TAMRA-labeled BSA probe.; format: functional
Sequence of Albumin (P02769 whole entry): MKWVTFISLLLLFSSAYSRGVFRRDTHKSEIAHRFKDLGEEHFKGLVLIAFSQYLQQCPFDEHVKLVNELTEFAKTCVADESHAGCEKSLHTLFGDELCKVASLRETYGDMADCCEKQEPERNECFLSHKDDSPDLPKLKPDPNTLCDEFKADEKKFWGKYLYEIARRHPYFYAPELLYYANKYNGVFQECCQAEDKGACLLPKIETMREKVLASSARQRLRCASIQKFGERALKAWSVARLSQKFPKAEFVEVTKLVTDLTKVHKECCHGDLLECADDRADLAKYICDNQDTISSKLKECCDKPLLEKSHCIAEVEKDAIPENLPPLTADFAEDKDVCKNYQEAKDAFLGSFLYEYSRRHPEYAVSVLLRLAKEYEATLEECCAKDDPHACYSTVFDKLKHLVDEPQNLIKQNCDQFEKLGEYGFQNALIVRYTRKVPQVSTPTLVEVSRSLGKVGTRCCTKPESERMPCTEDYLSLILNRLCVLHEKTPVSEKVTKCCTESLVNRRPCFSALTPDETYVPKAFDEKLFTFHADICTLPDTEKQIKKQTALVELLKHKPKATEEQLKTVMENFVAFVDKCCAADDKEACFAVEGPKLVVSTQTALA

With Cc1ccc2nc(N3C(=O)C(O)=C(C(=O)c4ccco4)C3c3cccs3)sc2c1 (stereo unspecified) the EC50 [1] was > 120 µM (not active), the EC50 [2] was > 120 µM (not active) and the EC50 [3] was 2.82 µM (active). The EC50 (H4) was > 120 µM (not active), the EC50 (Streptococcus) was 4.98 µM (active) and the EC50 [4] was > 99 µM (inactive). For the same compound, the EC50 [5] was > 99 µM (inactive), the IC50 (cells [6]) was > 67.5 µM (inactive) and the IC50 [7] was > 67.5 µM (inactive).

In the case of Cc1ccc(C2(C)NC(=O)N(CC(=O)Nc3ccc4[nH]c(=O)[nH]c4c3)C2=O)cc1 (stereo unspecified), the IC50 [8] is reported as > 66.6 µM (inactive) and the IC50 [9] is reported as 16.5 µM (active).

For COc1cccc(C2=NOC(C(=O)N3CCc4ccccc4C3)C2)c1 (stereo unspecified), the IC50 [10] was 45.2 µM (active) and the IC50 [11] was 9.21 µM (active).

With Cc1ccc(/C=C/C(=O)Nc2ccc([N+](=O)[O-])c(NC(=O)/C=C/c3ccc(C)o3)c2)o1 the IC50 (NS3) was 41.3 µM (not active), the IC50 [12] was 2.12 µM (active) and the IC50 [13] was > 80 µM (inactive). For the same compound, the EC50 [14] was 228 µM (active), the IC50 (Genome polyprotein) was > 100 µM (active) and the IC50 [15] was 5.89 µM (active). The IC50 [16] was 7.18 µM (active), the IC50 [17] was 5.24 µM (active) and the IC50 [18] was 15.3 µM (active). For the same compound, the IC50 [19] was 165 µM (active).

With COCCn1nnnc1C(c1ccc(O)c(OC)c1)N1CCc2ccccc2C1 (stereo unspecified) the IC50 [12] was 7.06 µM (active), the IC50 (cells [20]) was > 29.9 µM (inactive) and the EC50 [21] was 0.695 µM (active). For the same compound, the IC50 [22] was 3.75 µM (active) and the EC50 (cells [23]) was > 29.9 µM (inactive).

In the case of CC1=NN(c2ccc(C)cc2C)C(=O)C1C(c1ccccc1O)C1C(=O)N(c2ccc(C)cc2C)N=C1C (stereo unspecified), the IC50 [10] is reported as 7.5 µM (active) and the IC50 [11] is reported as 18.9 µM (active).

In the case of O=C(CSc1ccc(-c2ccncc2)nn1)c1ccc(Cl)cc1, the IC50 [8] is reported as > 66.6 µM (inactive) and the IC50 [9] is reported as 12.1 µM (active).

With O=C(CC1C(=O)NCCN1CCCc1ccccc1)NCCc1ccccc1F (stereo unspecified) the IC50 (cells [20]) was > 29.9 µM (inactive), the EC50 [21] was 1.71 µM (active) and the IC50 [22] was 7.17 µM (active). The EC50 (cells [23]) was > 29.9 µM (inactive).

With Cc1cc([N+](=O)[O-])cc(/C=N/n2c(C)nc3ccccc3c2=O)c1O the EC50 [3] was 8.39 µM (active), the EC50 (Streptococcus) was 7.71 µM (active) and the IC50 (Albumin) was > 94 µM (inactive).

For C/C(=N/NC(=O)c1cccs1)c1cccc(N)c1, the IC50 (cells [6]) was > 67.6 µM (inactive) and the IC50 [7] was > 67.6 µM (inactive).
